This is an account of results in US20090286827A1, “NOVEL BI-ARYL AMINES” (priority 2006, published 2009).

The target in the first test is T1, mGluR5 (Homo sapiens, UniProt P41594).
T1 construct: expressed in transfected cells
T1 sequence (P41594 21-1180 isoform P41594-2 limits assumed): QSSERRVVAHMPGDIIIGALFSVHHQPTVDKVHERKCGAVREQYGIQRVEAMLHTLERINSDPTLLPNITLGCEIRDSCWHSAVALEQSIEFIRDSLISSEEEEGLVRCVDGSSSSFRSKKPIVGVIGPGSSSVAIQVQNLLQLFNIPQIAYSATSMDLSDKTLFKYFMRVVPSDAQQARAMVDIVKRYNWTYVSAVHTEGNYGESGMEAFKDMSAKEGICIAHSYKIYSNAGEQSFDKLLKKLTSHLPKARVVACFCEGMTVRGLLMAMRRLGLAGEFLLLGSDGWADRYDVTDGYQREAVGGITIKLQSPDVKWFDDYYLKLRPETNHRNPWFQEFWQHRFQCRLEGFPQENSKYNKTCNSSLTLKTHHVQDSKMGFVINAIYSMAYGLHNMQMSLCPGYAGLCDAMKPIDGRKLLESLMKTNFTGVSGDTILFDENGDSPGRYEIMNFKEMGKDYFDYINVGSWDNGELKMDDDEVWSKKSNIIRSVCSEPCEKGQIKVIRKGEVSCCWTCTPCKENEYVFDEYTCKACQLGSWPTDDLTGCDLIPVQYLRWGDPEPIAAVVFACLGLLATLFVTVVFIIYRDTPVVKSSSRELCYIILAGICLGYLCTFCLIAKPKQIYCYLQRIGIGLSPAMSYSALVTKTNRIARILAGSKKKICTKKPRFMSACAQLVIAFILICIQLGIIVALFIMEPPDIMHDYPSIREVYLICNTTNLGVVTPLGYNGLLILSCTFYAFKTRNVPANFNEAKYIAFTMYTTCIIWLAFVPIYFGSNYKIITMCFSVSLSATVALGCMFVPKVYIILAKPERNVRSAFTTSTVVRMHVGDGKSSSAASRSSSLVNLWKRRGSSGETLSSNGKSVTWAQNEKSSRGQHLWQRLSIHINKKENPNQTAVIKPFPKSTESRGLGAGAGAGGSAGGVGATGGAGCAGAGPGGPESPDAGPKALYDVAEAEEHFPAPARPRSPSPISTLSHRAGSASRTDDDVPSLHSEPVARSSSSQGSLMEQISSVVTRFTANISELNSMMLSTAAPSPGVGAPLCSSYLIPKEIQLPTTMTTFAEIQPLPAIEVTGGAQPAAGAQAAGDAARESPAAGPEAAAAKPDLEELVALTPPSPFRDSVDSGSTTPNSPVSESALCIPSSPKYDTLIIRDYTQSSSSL
Briefly: inhibition of the glutamate induced elevation of intracellular Ca2+-concentration. It counts as cell-based. The following applies: inhibition of glutamate induced elevation of intracellular Ca2+ at a concentration of 10 μM. From the text:
This can be determined in vitro for example at recombinant human metabotropic glutamate receptors, especially PLC-coupled subtypes thereof such as mGluR5, using different procedures like, for example, measurement of the inhibition of the agonist induced elevation of intracellular Ca^2+ concentration in accordance with L. P. Daggett et al., Neuropharm. Vol. 34, pages 871-886 (1995), P. J. Flor et al., J. Neurochem. Vol. 67, pages 58-63 (1996) or by determination to what extent the agonist induced elevation of the inositol phosphate turnover is inhibited as described by T. Knoepfel et al., Eur. J. Pharmacol. Vol. 288, pages 389-392 (1995), L. P. Daggett et al., Neuropharm. Vol. 34, pages 871-886 (1995) and references cited therein. Isolation and expression of human mGluR subtypes are described in U.S. Pat. No. 5,521,297. Selected agents of the invention show IC50 values for the inhibition of the agonist (e.g. glutamate or quisqualate) induced elevation of intracellular Ca2+ concentration or the agonist (e.g. glutamate or quisqualate) induced inositol phosphate turnover, measured in recombinant cells expressing hmGluR5a of about 1 nM to about 50 μM.
Activity of compounds of the present invention was examined by measurement of the inhibition of the glutamate induced elevation of intracellular Ca^2+-concentration following similar methods than those described in L. P. Daggett et al., Neuropharm. Vol. 34, pages 871-886 (1995), P. J. Flor et al., J. Neurochem. Vol. 67, pages 58-63 (1996).
The table below represents percentages of inhibition of the glutamate induced elevation of intracellular Ca^2+-concentration at a concentration of 10 μM.
As for `Clc1ccc(Nc2ccc(-c3nccn3C3CCCCC3)cn2)cc1` [Compound 7, (4-Chloro-phenyl)-[5-(1-yclohexyl-1H-imidazol-2-yl)-pyridin-2-yl]-amine], the “mGluR5 Activity inh. at 10 μM [%]” value was found to be 27%.

Still in this test, the particulars now being: inhibition of glutamate induced elevation of intracellular Ca2+ at a concentration of 10 μM; read-out: mGluR5 Activity inh. at 10 μM [%].
Turning to `CCCCn1cc(C(C)(C)C)nc1-c1cnc(Nc2ccc(Cl)cc2)c(Cl)c1` [Compound 41, [5-(1-Butyl-4-tert-butyl-1H-imidazol-2-yl)-3-chloro-pyridin-2-yl]-(4-chloro-phenyl)-amine], the inhibition at 10 µM is 79%.

In the case of `CC(C)Cn1ccnc1-c1ccc(Nc2ccc(Cl)cc2)nc1` [Compound 5, (4-Chloro-phenyl)-[5-(1-isobutyl-1H-imidazol-2-yl)-pyridin-2-yl]-amine], the inhibition at 10 µM came out at 95%.

`Clc1ccc(Nc2ccc(-c3nccn3-c3ccccc3)cn2)cc1` [Compound 9, (4-Chloro-phenyl)-[5-(1-phenyl-1H-imidazol-2-yl)-pyridin-2-yl]-amine]: the inhibition at 10 µM stood at 63%.

For the molecule `CCCCn1cc(CC)nc1-c1cnc(Nc2ccc(Cl)cc2)c(Cl)c1` [Compound 35, [5-(1-Butyl-4-ethyl-1H-imidazol-2-yl)-3-chloro-pyridin-2-yl]-(4-chloro-phenyl)-amine], the inhibition at 10 µM amounted to 100%.

Turning to `CCCn1c(-c2cnc(Nc3ccc(Cl)cc3)c(Cl)c2)nc(C)c1C` [Compound 42, [3-Chloro-5-(4,5-dimethyl-1-propyl-1H-imidazol-2-yl)-pyridin-2-yl]-(4-chloro-phenyl)-amine], the inhibition at 10 µM came to 94%.

Regarding `Clc1ccc(Nc2ncc(-c3nnc4n3CCCC4)cc2Cl)cc1` [Compound 24, (4-Chloro-phenyl)-[3-chloro-5-(5,6,7,8-tetrahydro-[1,2,4]triazolo[4,3-a]pyridin-3-yl)-pyridin-2-yl]-amine], the inhibition at 10 µM was 89%.

As to `Clc1ccc(Nc2ncc(-c3ncc4n3CCCC4)cc2Cl)cc1` [Compound 17, (4-Chloro-phenyl)-[3-chloro-5-(5,6,7,8-tetrahydro-imidazo[1,5-a]pyridin-3-yl)-pyridin-2-yl]-amine], the inhibition at 10 µM is 95%.

In the case of `CCn1ccnc1-c1ccc(Nc2ccc(Cl)cc2)nc1` [Compound 1, (4-Chloro-phenyl)-[5-(1-ethyl-1H-imidazol-2-yl)-pyridin-2-yl]-amine], the inhibition at 10 µM was 94%.

As to `CCn1ccnc1-c1cnc(Nc2ccc(Cl)cc2)c(Cl)c1` [Compound 15, [3-Chloro-5-(1-ethyl-1H-imidazol-2-yl)-pyridin-2-yl]-(4-chloro-phenyl)-amine], the inhibition at 10 µM stood at 100%.

As for `CC(C)n1ccnc1-c1ccc(Nc2ccc(Cl)cc2)nc1` [Compound 4, (4-Chloro-phenyl)-[5-(1-isopropyl-1H-imidazol-2-yl)-pyridin-2-yl]-amine], the inhibition at 10 µM amounted to 93%.

Take `CCCn1cc(C)nc1-c1cnc(Nc2ccc(Cl)cc2)c(Cl)c1` [Compound 33, [3-Chloro-5-(4-methyl-1-propyl-1H-imidazol-2-yl)-pyridin-2-yl]-(4-chloro-phenyl)-amine]: the inhibition at 10 µM stood at 100%.

Turning to `CCCn1ccnc1-c1ccc(Nc2ccc(Cl)cc2)nc1` [Compound 3, (4-Chloro-phenyl)-[5-(1-propyl-1H-imidazol-2-yl)-pyridin-2-yl]-amine], the inhibition at 10 µM was determined as 96%.

Turning to `Cn1ccnc1-c1ccc(Nc2ccc(Cl)cc2)nc1` [Compound 2, (4-Chloro-phenyl)-[5-(1-methyl-1H-imidazol-2-yl)-pyridin-2-yl]-amine], the inhibition at 10 µM was determined as 81%.

Consider `CCCc1nn[nH]c1-c1cnc(Nc2ccc(Cl)cc2)c(Cl)c1` [Compound 46, (4-Chloro-phenyl)-[3-chloro-5-(5-propyl-3H-[1,2,3]triazol-4-yl)-pyridin-2-yl]-amine], for which the inhibition at 10 µM turned out to be 68%.

For `CCn1cccc1-c1cnc(Nc2ccc(Cl)cc2)c(Cl)c1` [Compound 28, [3-Chloro-5-(1-ethyl-1H-pyrrol-2-yl)-pyridin-2-yl]-(4-chloro-phenyl)-amine], the inhibition at 10 µM stood at 31%.

As to `Cc1cnc(-c2cnc(Nc3ccc(Cl)cc3)c(Cl)c2)n1C` [Compound 31, [3-Chloro-5-(1,5-dimethyl-1H-imidazol-2-yl)-pyridin-2-yl]-(4-chloro-phenyl)-amine], the inhibition at 10 µM was 48%.

In the case of `Clc1ccc(Nc2ncc(-c3nnc4n3CCCCC4)cc2Cl)cc1` [Compound 25, (4-Chloro-phenyl)-[3-chloro-5-(6,7,8,9-tetrahydro-5H-[1,2,4]triazolo[4,3-a]azepin-3-yl)-pyridin-2-yl]-amine], the inhibition at 10 µM was 93%.

Regarding `Cc1cc(-c2cnc(Nc3ccc(Cl)cc3)c(Cl)c2)n(C)n1` [Compound 29, [3-Chloro-5-(2,5-dimethyl-2H-pyrazol-3-yl)-pyridin-2-yl]-(4-chloro-phenyl)-amine], the inhibition at 10 µM worked out at 39%.

Regarding `Cc1cncn1-c1cnc(Nc2ccc(Cl)cc2)c(Cl)c1` [Compound 48, [3-Chloro-5-(5-methyl-imidazol-1-yl)-pyridin-2-yl]-(4-chloro-phenyl)-amine], the inhibition at 10 µM was found to be 32%.

For the molecule `CCCn1nnnc1-c1cnc(Nc2ccc(Cl)cc2)c(Cl)c1` [Compound 22, (4-Chloro-phenyl)-[3-chloro-5-(1-propyl-1H-tetrazol-5-yl)-pyridin-2-yl]-amine], the inhibition at 10 µM is 49%.

On to `CCn1cc(C(C)(C)C)nc1-c1cnc(Nc2ccc(Cl)cc2)c(Cl)c1` [Compound 39, [5-(4-tert-Butyl-1-ethyl-1H-imidazol-2-yl)-3-chloro-pyridin-2-yl]-(4-chloro-phenyl)-amine], for which the inhibition at 10 µM turned out to be 97%.

For `CC(C)c1nccn1-c1cnc(Nc2ccc(Cl)cc2)c(Cl)c1` [Compound 47, [3-Chloro-5-(2-isopropyl-imidazol-1-yl)-pyridin-2-yl]-(4-chloro-phenyl)-amine], the inhibition at 10 µM turned out to be 34%.

Take `CCc1c(C)n(CC)c(-c2cnc(Nc3ccc(Cl)cc3)c(Cl)c2)[n+]1CC` [Compound 43, 2-[5-Chloro-6-(4-chloro-phenylamino)-pyridin-3-yl]-1,3,5-triethyl-4-methyl-3H-imidazol-1-ium iodide]: the inhibition at 10 µM stood at 37%.

With `Clc1ccc(Nc2ccc(-c3nnc4n3CCCC4)cn2)cc1` [Compound 13, (4-Chloro-phenyl)-[5-(5,6,7,8-tetrahydro-[1,2,4]triazolo[4,3-a]pyridin-3-yl)-pyridin-2-yl]-amine], the inhibition at 10 µM was found to be 95%.

In the case of `Cc1cn(C)c(-c2cnc(Nc3ccc(Cl)cc3)c(Cl)c2)n1` [Compound 30, [3-Chloro-5-(1,4-dimethyl-1H-imidazol-2-yl)-pyridin-2-yl]-(4-chloro-phenyl)-amine], the inhibition at 10 µM was 98%.

In the case of `Cc1cn(-c2cnc(Nc3ccc(Cl)cc3)c(Cl)c2)cn1` [Compound 49, [3-Chloro-5-(4-methyl-imidazol-1-yl)-pyridin-2-yl]-(4-chloro-phenyl)-amine], the inhibition at 10 µM turned out to be 35%.

Take `Clc1ccc(Nc2ccc(-c3nccn3CC3CC3)cn2)cc1` [Compound 6, (4-Chloro-phenyl)-[5-(1-cyclopropylmethyl-1H-imidazol-2-yl)-pyridin-2-yl]-amine]: the inhibition at 10 µM turned out to be 96%.

Turning to `CCCn1ccnc1-c1cnc(Nc2ccc(Cl)cc2)c(Cl)c1` [Compound 19, (4-Chloro-phenyl)-[3-chloro-5-(1-propyl-1H-imidazol-2-yl)-pyridin-2-yl]-amine], the inhibition at 10 µM amounted to 97%.

`Clc1ccc(Nc2ncc(-c3nnn[nH]3)cc2Cl)cc1` [Compound 21, (4-Chloro-phenyl)-[3-chloro-5-(1H-tetrazol-5-yl)-pyridin-2-yl]-amine]: the inhibition at 10 µM is 56%.

For the molecule `Clc1ccc(Nc2ncc(-c3ncc4ccccn34)cc2Cl)cc1` [Compound 16, (3-Chloro-5-imidazo[1,5-a]pyridin-3-yl-pyridin-2-yl)-(4-chloro-phenyl)-amine], the inhibition at 10 µM came out at 32%.

Turning to `CCCn1cc(CC)nc1-c1cnc(Nc2ccc(Cl)cc2)c(Cl)c1` [Compound 34, [3-Chloro-5-(4-ethyl-1-propyl-1H-imidazol-2-yl)-pyridin-2-yl]-(4-chloro-phenyl)-amine], the inhibition at 10 µM was found to be 100%.

`CCn1ccnc1-c1cnc(Nc2ccc(C)nc2)c(Cl)c1` [Compound 18, [3-Chloro-5-(1-ethyl-1H-imidazol-2-yl)-pyridin-2-yl]-(6-methyl-pyridin-3-yl)-amine]: the inhibition at 10 µM amounted to 95%.

In the case of `Clc1ccc(Nc2ccc(-c3nccn3Cc3ccccc3)cn2)cc1` [Compound 8, [5-(1-Benzyl-1H-imidazol-2-yl)-pyridin-2-yl]-(4-chloro-phenyl)-amine], the inhibition at 10 µM is 36%.

On to `CCc1cn(CC)c(-c2cnc(Nc3ccc(Cl)cc3)c(Cl)c2)n1` [Compound 36, [3-Chloro-5-(1,4-diethyl-1H-imidazol-2-yl)-pyridin-2-yl]-(4-chloro-phenyl)-amine], for which the inhibition at 10 µM was determined as 78%.

`Clc1ccc(Nc2ccc(-c3nnc4ccccn34)cn2)cc1` [Compound 14, (4-Chloro-phenyl)-(5-[1,2,4]triazolo[4,3-a]pyridin-3-yl-pyridin-2-yl)-amine]: the inhibition at 10 µM came to 28%.
